Test results published in patent publication US11179384B2, “Treatment of nonalcoholic fatty liver disease” (TAKEDA GMBH, priority 2016, dated 2021).

How the values were obtained:
TNFα gene expression = assay: Hepatic gene expression in prophylactic NASH mouse model, TNFα (Taqman PCR); format: in vivo; settings: LDLR-KO mice on mCDAA diet; 1, 3 and 10 mg/kg p.o. QD for 7 weeks; liver mRNA
Procedure: (§1) Homozygous low-density lipoprotein receptor knockout (LDLR-KO) mice were fed with chow or modified choline deficient, L-amino acid-defined (mCDAA) diet (A08111307, Research Diets, USA). After 1 week under chow or mCDAA diet, the mice were orally dosed with Compound A (1, 3 and 10 mg/5 ml/kg, QD, n=10; suspension in 0.5 w/v % methylcellulose suspension) for 7 weeks.
In addition prophylactic effects of Compound A on hepatic gene expression were evaluated. After total RNA was extracted from liver, cDNA was amplified using High-Capacity cDNA Reverse Transcription Kit (ABI 4368813), and target gene mRNA was measured using Taqman PCR. The target gene expression level was normalized by GAPDH.

Homozygous LDLR-KO mice = assay: Prophylactic effects in a mouse model of NASH (LDLR-KO mice, mCDAA diet); format: in vivo; settings: LDLR-KO mice on mCDAA diet, 1, 3 and 10 mg/kg p.o. QD for 7 weeks
Procedure: Prophylactic effects of Compound A on parameters such as a) hepatic fibrosis formation, b) hepatic triglyceride formation and c) plasma ALT reduction were examined in a rodent model of NASH.
as §1

[1] = test system: TNFα gene expression in THP-1 cells; assay: Anti-inflammatory effect in THP-1 cells (LPS-induced TNFα gene expression); format: cell-based, human; settings: PMA-treated THP-1 cells; 0.0001-1 μM, LPS 1 ng/mL, forskolin 0.1 μM, 5 hours
Procedure: Anti-inflammatory effect of Compound A was evaluated by gene expression of TNFα induced by LPS in THP-1 cells, a human monocytic cell line.
THP-1 cells (ATCC) were suspended in RPMI medium containing 10% FBS and 50 ng/mL PMA (2.5×10^5 cells/mL) and seeded on 96 well plates. Fourty-eight hours after the seeding, the medium was exchanged to serum-free RPMI medium. Three hours after the exchange, Compound A (0, 0.0001, 0.001, 0.01, 0.1 and 1 μM), LPS (1 ng/mL), and forskolin (0.1 μM) were added to the THP-1 cells. After the 5-hours incubation, total RNA was extracted from cell lysate using RNeasy 96 Kit (QIAGEN 74182). cDNA was amplified using High-Capacity cDNA Reverse Transcription Kit (ABI 4368813), and target gene mRNA was measured using Taqman PCR. The target gene expression level was normalized by GAPDH. The experiment was repeated 5 times.

[2] = Phase 1 clinical studies (single rising dose and multiple rising dose); format: in vivo, humans
From the text: Compound A differs from other development candidates intended for the treatment of NAFLD/NASH in that it exerts its effects via anti-inflammatory, anti-fibrotic and anti-steatotic mode of action. […] It is furthermore believed that all of these effects observed in in vitro and animal experiments will translate in corresponding effects in the clinical setting in humans.

[3] = test system: Tumor Necrosis Factor Alpha (TNFα); assay: Systemic TNFα release in LPS-challenged Sprague Dawley rats; format: in vivo; settings: SD rats; 0.1, 0.3, 1, 3 and 10 mg/kg p.o. 1 h before LPS 20 μg/kg i.v.; plasma 1 h after LPS; significant at all doses
Procedure: Compound A was administered 1 h before LPS challenge at doses of 0.1, 0.3, 1, 3 and 10 mg/kg (n=8 animals per dose group). An LPS and vehicle treated control group of n=8 animals was enclosed. Compound A or vehicle was given per os (p.o.) by gavage (administration volume: 10 mL/kg b.w.). LPS was injected intravenously (i.v.) at a dose of 20 μg/kg (administration volume: 1 mL/kg b.w.) 1 h after compound or vehicle administration.
One hour after LPS-challenge, the animals were sacrificed by inhalative isoflurane anaesthesia (5%; flow rate: 2-3 L/min) and subsequent cervical dislocation. Heparinized blood was obtained by heart puncture. Blood was centrifuged (21,000×g, 4° C., 10 min), and plasma samples were kept frozen at −20° C. until determination of TNFα levels by ELISA.

[4] = test system: alfa smooth muscle actin (αSMA) gene expression in human stellate cells (HSCs); assay: Anti-fibrotic activity in human hepatic stellate cells (TGF-β-induced αSMA gene expression); format: cell-based; settings: primary human HSCs; 0.0001-1 μM, TGF-β 0.2 ng/mL, forskolin 1 μM, 24 hours
Procedure: The effect on human stellate cells (HSCs) activation was evaluated by gene expression of alfa smooth muscle actin (αSMA) induced by TGF-β.
Primary HSCs (ScienCell) were suspended in serum-free SteCM medium (ScienCell) and seeded on Poly-D-Lysine-coated 96 well plates as 2.5×10^3 cells/100 uL/well. Six hours after the seeding, HSCs were treated with Compound A (0, 0.0001, 0.001, 0.01, 0.1, and 1 μM), TGF-β (0.2 ng/mL) and forskolin (1 μM) for 24 hours. After the 24-hours incubation, total RNA was extracted from cell lysate using RNeasy 96 Kit (QIAGEN 74182). cDNA was amplified using High-Capacity cDNA Reverse Transcription Kit (ABI 4368813), and target gene mRNA was measured using Taqman PCR. The target gene expression level was normalized by GAPDH. The experiment was repeated 5 times.

SMILES: CCOc1cc2c(cc1OC)C(c1ccc(=O)n(C)c1)=N[C@@H]1CC[C@@H](O)C[C@H]21 [Compound A, 5-((2R,4aR,10bR)-9-Ethoxy-2-hydroxy-8-methoxy-1,2,3,4,4a,10b-hexahydro-phenanthridin-6-yl)-1-methyl-1H-pyridin-2-one]
- hepatic inflammatory TNFα gene expression (normalized by GAPDH) (TNFα gene expression): dose-dependent reduction
- Body weight (Homozygous LDLR-KO mice): slightly decreased
- Hepatic triglyceride (TG) content (Homozygous LDLR-KO mice): significantly reduced
- Liver weight (Homozygous LDLR-KO mice): dose dependently decreased
- epididymal white adipose tissue (surrogate for body fat mass) (Homozygous LDLR-KO mice): dose dependently decreased
- food intake (Homozygous LDLR-KO mice): no change
- plasma ALT levels (Homozygous LDLR-KO mice): significantly reduced
- hepatic fibrosis area (Homozygous LDLR-KO mice; started after 1 week of diet): dose-dependent reduction
- LPS-induced TNF-α gene expression in THP-1 cells [1]: dose-dependently suppressed
- PDE4 inhibitor specific adverse events (diarrhea, nausea) ([2]; Phase 1, single dose 0.05 to 0.85 mg, multiple dose 0.05 to 0.8 mg 7 days, 0.35 and 0.8 mg up to 14 days): no PDE4 inhibitor specific adverse events
- safety and pharmacokinetic profile ([2]; Phase 1 single rising dose and multiple rising dose studies): very favorable
- mean TNFα in blood plasma [3]: dose-dependently reduced
- TGF-β-induced αSMA gene expression in HSCs [4]: dose-dependently suppressed
